{
  "source": "patent US20240392348A1",
  "about": "“METHODS AND COMPOSITIONS USEFUL FOR NUCLEIC ACID SEQUENCING” (Singular Genomics Systems, Inc., priority 2021, published 2024)",
  "system": "polymerase",
  "type": "biochemical",
  "text": "The incorporation score is a direct reflection of the incorporation half time; +++ refers to 4 to 14 seconds, ++ refers to 15 to 25 seconds, and + refers to greater than 25 seconds. The next base incorporation score reflects the incorporation half time for the next base, C refers to 20 to 100 seconds, B refers to 101 to 200 seconds, and A refers to greater than 200 seconds.",
  "data": [
    {"compound": "O=C(O)CCCC[C@@H]1SC[C@@H]2NC(=O)N[C@@H]21", "note": "[biotin]", "values": [
      {"measurement": "incorporation score", "setting": "nucleobase not stated", "value": "+ (+ refers to greater than 25 seconds)"},
      {"measurement": "incorporation halftime", "setting": "same experimental conditions for biotin and rhodamine dye", "value": 28, "unit": "s"}
    ]}
  ]
}
